According to patent US12508271B2, “Prodrugs of 2-PMPA for healthy tissue protection during PSMA-targeted cancer imaging or radiotherapy” (The Johns Hopkins University, priority 2017, dated 2025):

Legend:
[1] = target: T1, PSMA (Homo sapiens, UniProt Q04609); test: Tumor, kidney and salivary gland uptake of 68Ga-PSMA-617 in a prostate cancer patient with and without Tris-POC-2-PMPA pre-dosing (PET); format: in vivo; parameters: from tissue; host or cells: kidneys, salivary and lacrimal glands, and tumour lesions/metastases of living human subjects (PET / gamma imaging); details: PET 1 hour after administration, no Tris-POC-2-PMPA
T1 sequence (Q04609 whole entry): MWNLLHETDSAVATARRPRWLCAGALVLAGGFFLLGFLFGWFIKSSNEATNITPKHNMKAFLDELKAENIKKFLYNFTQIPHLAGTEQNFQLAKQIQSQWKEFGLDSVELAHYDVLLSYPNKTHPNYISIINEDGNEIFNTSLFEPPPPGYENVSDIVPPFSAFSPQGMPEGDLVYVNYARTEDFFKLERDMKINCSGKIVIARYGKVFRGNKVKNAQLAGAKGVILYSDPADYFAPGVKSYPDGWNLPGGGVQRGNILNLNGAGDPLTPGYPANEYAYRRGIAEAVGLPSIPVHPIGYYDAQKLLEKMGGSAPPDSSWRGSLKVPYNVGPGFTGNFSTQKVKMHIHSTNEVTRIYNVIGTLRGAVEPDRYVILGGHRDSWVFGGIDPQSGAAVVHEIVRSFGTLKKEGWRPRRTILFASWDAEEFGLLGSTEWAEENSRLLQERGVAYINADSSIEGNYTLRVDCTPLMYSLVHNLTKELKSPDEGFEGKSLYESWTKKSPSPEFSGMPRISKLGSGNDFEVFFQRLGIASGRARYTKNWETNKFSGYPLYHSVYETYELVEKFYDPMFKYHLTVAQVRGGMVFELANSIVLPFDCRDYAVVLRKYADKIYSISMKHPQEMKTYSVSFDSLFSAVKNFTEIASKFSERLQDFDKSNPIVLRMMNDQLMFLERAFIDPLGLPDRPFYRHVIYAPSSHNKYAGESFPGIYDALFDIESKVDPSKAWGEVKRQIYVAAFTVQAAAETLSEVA
Protocol: One patient was PET imaged 1 h after injection of ^68Ga-PSMA-617 and quantified per SUVmax for tracer uptake in tumor, kidneys and salivary glands. On a subsequent day, the same patient was imaged using the same protocol but with pretreatment of 10 mg (0.1 mg/kgBW) Tris-POC-2-PMPA solution (in 2.5 mL of 30% ethanol) 15 min before application of the PET-tracer.

[2] = cited from earlier work
[3] = target: T1, PSMA; parameters: from tissue; host or cells: kidneys, salivary and lacrimal glands, and tumour lesions/metastases of living human subjects (PET / gamma imaging); details: without Tris-POC-2-PMPA; same center (Kratochwil et al., 2016); cited from earlier work
[4] = other mCRPC patients, literature

uptake in kidneys without pre-treatment [1] [SUVmax] | uptake in metastases without pre-treatment [1] | uptake in parotid gland without pre-treatment [1] [SUVmax] | uptake in submandibular gland without pre-treatment [1] [SUVmax] | Compound | mean effective dose to the lacrimal glands ([2]; Hohberg et al., 2016) [Gy/GBq] | absorbed dose to the kidneys, reported range [2, 4] | absorbed dose to the red marrow, reported range [2, 4] | absorbed dose to the salivary glands, reported range [2, 4] | mean absorbed dose to the kidneys, historical controls [3] [Gy/GBq] | mean absorbed dose to the red marrow, historical controls [3] [Gy/GBq] | mean absorbed dose to the salivary glands, historical controls [3] [Gy/GBq]
35.4 | 3.6-12.5 SUVmax | 18.2 | 23.1 | O=C([O-])CN1CCN(CC(=O)[O-])CCN(CC(=O)NC[C@H]2CC[C@H](C(=O)N[C@@H](Cc3ccc4ccccc4c3)C(=O)NCCCC[C@H](NC(=O)N[C@@H](CCC(=O)O)C(=O)O)C(=O)O)CC2)CCN(CC(=O)[O-])CC1.[68Ga+3] [^68Ga-PSMA-617, reference compound] |  |  |  |  |  |  | 
 |  |  |  | O=C([O-])CN1CCN(CC(=O)[O-])CCN(CC(=O)NCC2CCC(C(=O)N[C@@H](Cc3ccc4ccccc4c3)C(=O)NCCCC[C@H](NC(=O)N[C@@H](CCC(=O)O)C(=O)O)C(=O)O)CC2)CCN(CC(=O)[O-])CC1.[177Lu+3] (some centres unmarked) [^177Lu-PSMA-617] | 2.82 | 0.53-0.99 Gy/GBq | 0.01-0.05 Gy/GBq | 0.72-1.90 Gy/GBq | 0.78 | 0.03 | 1.44
